Test systems include A498 renal; NCI-H23 lung; NCI-H460 lung; OVCAR-4 ovarian; SW-620 colon; UACC-62 melanoma; A549 NSCLC; NCI-H522 lung; OVCAR-8 ovarian; HL-60(TB) leukemia.
What all share (assay): NCI-60 cell line screen, 48 h

Several values for one entry are separate records, joined by “and”; a condition that tells them apart may be missing. Identical values can stand only once.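 Growth conditions: 96-well plates. Treatment: test compound, 48 hours, 5 concentrations. Analysis: linear interpolation between bracketing concentrations; unreached endpoints set to highest concentration. GI50 is the concentration that inhibits growth by half. TGI is the concentration that stops growth completely.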

Our source for the GI50 and TGI values is PubChem BioAssay (NCI).

For the molecule `Cn1cc(-c2csc(-c3cn(CCCN4CCCCC4)c4ccc(Br)cc34)n2)c2cccnc21`, the GI50 is 3.69 µM in the assay with A498 renal; 1.79 µM with NCI-H23 lung; 1.87 µM in the assay on NCI-H460 lung; 2.02 µM with OVCAR-4 ovarian; 1.82 µM in the assay with SW-620 colon; 1.78 µM in the assay on UACC-62 melanoma. For the same molecule, the TGI with A498 renal was determined as 14 µM; in the assay on NCI-H23 lung it was 3.51 µM; in the assay with NCI-H460 lung, 3.4 µM; with OVCAR-4 ovarian, 4.19 µM; in the assay with SW-620 colon it was 3.26 µM; with UACC-62 melanoma it was 3.4 µM.

Take `CN(C)C1(N(C)C)Oc2c(c(=O)n(C)c(=O)n2C)C(c2ccc(F)cc2)C1(F)F` (stereo not given): the TGI in the assay on A498 renal, with A549 NSCLC, with NCI-H23 lung, with NCI-H460 lung, in the assay on OVCAR-4 ovarian and with SW-620 colon was > 100 µM throughout. Besides, in the assay with UACC-62 melanoma, the TGI is > 100 µM.

`CC(C)(Cl)C(Cl)CC/C(CBr)=C(\Cl)CBr` (stereo not given): the TGI in the assay with A498 renal is > 58.2 µM; with A549 NSCLC it was 30.3 µM; with NCI-H23 lung, 3.77 µM; with NCI-H460 lung it was 8.21 µM; in the assay with NCI-H522 lung it was 3.09 µM; in the assay with OVCAR-4 ovarian it was 2.9 µM. Besides, the TGI in the assay on OVCAR-8 ovarian came out at 3.92 µM; in the assay on SW-620 colon it was 3.28 µM; with UACC-62 melanoma, 3.33 µM.

On to `O=c1[nH]nc(-c2ccccc2)n1-n1cccc1`, for which the TGI in the assay on A498 renal, in the assay with A549 NSCLC, in the assay on NCI-H460 lung, in the assay on NCI-H522 lung, with OVCAR-4 ovarian and with OVCAR-8 ovarian was > 100 µM in each case. The TGI in the assay on SW-620 colon and in the assay on UACC-62 melanoma was > 100 µM each time.

With `CC(Cn1c(=O)oc2ccccc21)N(C)C` (stereo not given), the TGI in the assay on A498 renal, with HL-60(TB) leukemia, in the assay on NCI-H23 lung, with NCI-H460 lung, in the assay on OVCAR-8 ovarian and with SW-620 colon was > 100 µM in each case. For the same molecule, the TGI with UACC-62 melanoma is > 100 µM.

In the case of `O=C(Cn1c2ccc(Br)cc2c2nc3ccccc3nc21)N1CCOCC1`, the TGI with A498 renal, in the assay on A549 NSCLC, in the assay on NCI-H23 lung, with NCI-H460 lung, in the assay with OVCAR-4 ovarian and with OVCAR-8 ovarian was > 100 µM each time. Further, the TGI in the assay with SW-620 colon and with UACC-62 melanoma was > 100 µM each time.

Regarding `O=C(O)C1Cc2[nH]c3ccccc3c2C2CCCC12` (stereo not given), the TGI with A498 renal, in the assay with A549 NSCLC, in the assay on NCI-H23 lung, in the assay with NCI-H460 lung, in the assay with NCI-H522 lung and in the assay with OVCAR-4 ovarian was > 100 µM in each case. Also, the TGI in the assay with OVCAR-8 ovarian, in the assay with SW-620 colon and in the assay with UACC-62 melanoma was > 100 µM throughout.

For the molecule `CCOC(=O)c1cc(C2CCN(Cc3ccccc3)C2=O)c(C(=O)/C=C(/C)N)[nH]1` (stereo not given), the TGI with A498 renal, in the assay with A549 NSCLC, with NCI-H23 lung, in the assay on NCI-H460 lung, with NCI-H522 lung and in the assay with OVCAR-4 ovarian was > 100 µM each time. Besides, the TGI in the assay on OVCAR-8 ovarian, in the assay on SW-620 colon and with UACC-62 melanoma was > 100 µM throughout.

Consider `NCCNc1ccc(NCCN)c2c1C(=O)c1c(O)ccc(O)c1C2=O`, for which the TGI with A498 renal is 0.37 µM; in the assay with A549 NSCLC it was 0.223 µM and 0.393 µM; in the assay on NCI-H23 lung it was 0.0442 µM and 0.0835 µM; in the assay with NCI-H460 lung, 0.159 µM and 0.178 µM; in the assay on NCI-H522 lung, 0.467 µM and 0.15 µM; with OVCAR-4 ovarian, 1.09 µM and 0.715 µM. In addition, the TGI is 0.466 µM and 0.353 µM in the assay with OVCAR-8 ovarian; 1.32 µM and 1.12 µM with SW-620 colon; 0.89 µM and 0.313 µM with UACC-62 melanoma. Further, the GI50 is < 0.0144 µM in the assay on NCI-H23 lung; 0.018 µM in the assay on NCI-H522 lung; 0.0625 µM with OVCAR-4 ovarian; 0.02 µM in the assay with OVCAR-8 ovarian; 0.0288 µM in the assay with SW-620 colon; 0.0228 µM in the assay with UACC-62 melanoma.

`COC(=O)N1C2C(C[C@@]1(C)C(=O)OC)c1ccccc1N2S(=O)(=O)c1ccccc1` (stereo not given in full): the TGI in the assay on A549 NSCLC, with HL-60(TB) leukemia, in the assay on NCI-H23 lung, in the assay on NCI-H460 lung, in the assay on NCI-H522 lung and in the assay on OVCAR-4 ovarian was > 100 µM in each case. Moreover, the TGI in the assay with OVCAR-8 ovarian, with SW-620 colon and with UACC-62 melanoma was > 100 µM in each case.

In the case of `CCCC1(N2C(=O)c3ccc4c5c(ccc(c35)C2=O)N(C2(CCC)CCCCC2)C4=O)CCCCC1`, the TGI in the assay on A498 renal, in the assay on A549 NSCLC, with NCI-H23 lung, in the assay on NCI-H460 lung, in the assay on NCI-H522 lung and with OVCAR-4 ovarian was > 100 µM throughout. Also, the TGI with OVCAR-8 ovarian, in the assay with SW-620 colon and in the assay with UACC-62 melanoma was > 100 µM in each case.

Consider `Cc1nc2c(n1Cc1ccc(F)cc1)C(=O)c1ccccc1C2=O`, for which the TGI in the assay on A549 NSCLC is > 100 µM; in the assay on HL-60(TB) leukemia, 29.7 µM; in the assay on NCI-H23 lung, > 100 µM; with NCI-H460 lung, > 100 µM; with NCI-H522 lung, 26 µM; in the assay with OVCAR-4 ovarian it was > 100 µM. The TGI in the assay on OVCAR-8 ovarian was > 100 µM; with SW-620 colon, > 100 µM; in the assay with UACC-62 melanoma, 32.3 µM.

As for `Cc1cnc2c(c1)C(=O)N(c1ccc(Br)cc1)S2(=O)=O`, the TGI with A549 NSCLC, with HL-60(TB) leukemia, in the assay on NCI-H23 lung, with NCI-H460 lung, in the assay on NCI-H522 lung and in the assay with OVCAR-4 ovarian was > 100 µM in each case. The TGI with OVCAR-8 ovarian, in the assay with SW-620 colon and in the assay with UACC-62 melanoma was > 100 µM throughout.

For the molecule `COC1=C(OC)C(=O)C(C/C=C/c2c(Cl)nc3sccn23)=C(C)C1=O`, the TGI was determined as 48.2 µM with A498 renal; 33.3 µM in the assay on A549 NSCLC; 7.76 µM with NCI-H23 lung; 38.6 µM in the assay with NCI-H460 lung; 33.2 µM in the assay with NCI-H522 lung; 13.9 µM in the assay with OVCAR-4 ovarian. Moreover, the TGI in the assay with OVCAR-8 ovarian worked out at 24.2 µM; with SW-620 colon, 46 µM; with UACC-62 melanoma, 29.1 µM.

In the case of `Cc1cc2nc3c(C#N)c4c(c(Cl)n3c2cc1C)CCC4`, the TGI in the assay on A498 renal was > 100 µM; with NCI-H23 lung it was 62.6 µM; in the assay on NCI-H460 lung, > 100 µM; with NCI-H522 lung, 32.5 µM; with OVCAR-4 ovarian it was > 100 µM; with OVCAR-8 ovarian, 37.4 µM. In addition, the TGI with SW-620 colon worked out at 39.3 µM.

`CC(C)C1CCC(=O)CC1CCCCC1CC(=O)CC1O[Si](C)(C)C(C)(C)C` (stereo not given): the TGI with A498 renal was 27.1 µM; with A549 NSCLC, 32.9 µM; with NCI-H23 lung, 33.7 µM; with NCI-H460 lung, > 100 µM; in the assay with NCI-H522 lung, 4.02 µM; in the assay on OVCAR-4 ovarian, 29.3 µM. Further, the TGI with OVCAR-8 ovarian is 13 µM; in the assay on SW-620 colon, > 26.5 µM; with UACC-62 melanoma it was 17.1 µM.

Turning to `CCCc1cn2c(/C=N/N=C(N)N)c(-c3ccc([N+](=O)[O-])cc3)nc2s1`, the TGI in the assay with A498 renal worked out at 10.6 µM; in the assay with A549 NSCLC it was 2.91 µM; in the assay on HL-60(TB) leukemia, 2.52 µM; with NCI-H23 lung, 2.82 µM; with OVCAR-8 ovarian, 3.21 µM; in the assay on UACC-62 melanoma, 3.35 µM.

In the case of `O=C1/C(=C/c2cccc([N+](=O)[O-])c2)Cc2ccccc21`, the TGI in the assay with A549 NSCLC, in the assay on HL-60(TB) leukemia, in the assay on NCI-H23 lung, with NCI-H460 lung, in the assay on NCI-H522 lung and in the assay with OVCAR-4 ovarian was > 100 µM in each case. The TGI in the assay with OVCAR-8 ovarian, with SW-620 colon and in the assay on UACC-62 melanoma was > 100 µM throughout.

For `CC(C)(CN1CCCCC1)C(=O)CC(SCCS(=O)(=O)O)c1ccccc1` (stereo not given), the TGI was 32.1 µM in the assay on A498 renal; > 100 µM in the assay on A549 NSCLC; > 100 µM in the assay with NCI-H460 lung; 5.83 µM in the assay on NCI-H522 lung; 49.4 µM in the assay on OVCAR-4 ovarian; 65 µM with OVCAR-8 ovarian. Moreover, the TGI in the assay on SW-620 colon came out at 28.8 µM; in the assay with UACC-62 melanoma, 29.5 µM.

For `O=C(OCC1CC(C2(O)CCCCC2)C(=O)O1)c1ccccc1` (stereo not given), the TGI in the assay with A498 renal, in the assay with A549 NSCLC, with NCI-H23 lung, in the assay with NCI-H460 lung, in the assay on NCI-H522 lung and with OVCAR-4 ovarian was > 100 µM throughout. The TGI in the assay on OVCAR-8 ovarian, with SW-620 colon and in the assay on UACC-62 melanoma was > 100 µM each time.

With `O=C(/C=C/c1ccc(Cl)cc1)c1nc2ccccc2[nH]1`, the TGI in the assay on A498 renal was > 100 µM; in the assay on A549 NSCLC, > 100 µM; in the assay with NCI-H23 lung, > 100 µM; with NCI-H460 lung, > 100 µM; with NCI-H522 lung, > 100 µM; in the assay with OVCAR-4 ovarian it was 71.3 µM. For the same molecule, the TGI is > 100 µM in the assay with OVCAR-8 ovarian, 53.1 µM in the assay on SW-620 colon and > 100 µM in the assay on UACC-62 melanoma.

In the case of `C[n+]1ccc2/c(=C\C#N)c3ccccc3n21`, the TGI was 52.7 µM in the assay on A549 NSCLC; 65.6 µM in the assay on HL-60(TB) leukemia; 40.7 µM in the assay on NCI-H23 lung; > 100 µM in the assay with NCI-H460 lung; 70.8 µM in the assay with NCI-H522 lung; 72.9 µM with OVCAR-4 ovarian. The TGI in the assay on OVCAR-8 ovarian, in the assay with SW-620 colon and in the assay with UACC-62 melanoma was > 100 µM in each case.
